Reference: patent US11939331B2, “Tricyclic heterocycles as FGFR inhibitors” (Incyte Corporation, priority 2021, dated 2024)
pIC50: −log10 of the molar value.

Biological target: wild-type un-phosphorylated FGFR3 protein (Homo sapiens, UniProt P22607)
Experiment: FGFR Enzymatic Assay (FRET peptide phosphorylation)
Method: The inhibitor potency of the exemplified compounds was determined in an enzyme discontinuous assay that measures peptide phosphorylation using FRET measurements to detect product formation. Inhibitors were serially diluted in DMSO and a volume of 0.2 μL was transferred to the wells of a 384-well plate. A 5 μL/well volume of enzyme isoforms of FGFR (-1, -2, -3 wild-type and mutant isoforms, -4) including phosphorylated and un-phosphorylated proteins diluted in assay buffer (50 mM HEPES, 10 mM MgCl2, 1 mM EGTA, 0.01% Tween-20, 5 mM DTT, pH 7.5) was added to the plate and pre-incubated with inhibitor for 5 to 15 minutes at ambient temperature. Appropriate controls (enzyme blank and enzyme with no inhibitor) were included on the plate. The reaction was initiated by the addition of a 5 μL/well volume containing both biotinylated [sequence] peptide substrate (SEQ ID NO: 1) and ATP in assay buffer. The 10 μL/well reaction concentration of the peptide substrate was 500 nM whereas the ATP concentration was maintained near or below the ATP Km. The ATP Km values were pre-determined in a separate series of experiments. The reaction plate was incubated at 25° C. for 1 hr and the reactions were ended with the addition of 5 μL/well of quench solution (50 mM Tris, 150 mM NaCl, 0.5 mg/mL BSA, pH 7.8; 45 mM EDTA, 600 nM staurosporin, with Perkin Elmer Lance Reagents at 3.75 nM Eu-antibody PY20 and 180 nM APC-Streptavidin). The plate was allowed to equilibrate for ˜10 minutes at ambient temperature before scanning on a PheraStar plate reader (BMG Labtech) instrument.
Either GraphPad prism or XLfit was used to analyze the data. The IC50 values were derived by fitting the data to a four parameter logistic equation producing a sigmoidal dose-response curve with a variable Hill coefficient. Prism equation: Y=Bottom+(Top−Bottom)/(1+10^((Log IC50−X)*Hill slope)); XLfit equation: Y=(A+((B−A)/(1+((X/C)^D)))) where X is the logarithm of inhibitor concentration and Y is the response.

wild-type un-phosphorylated FGFR3 protein, sequence (P22607 23-806): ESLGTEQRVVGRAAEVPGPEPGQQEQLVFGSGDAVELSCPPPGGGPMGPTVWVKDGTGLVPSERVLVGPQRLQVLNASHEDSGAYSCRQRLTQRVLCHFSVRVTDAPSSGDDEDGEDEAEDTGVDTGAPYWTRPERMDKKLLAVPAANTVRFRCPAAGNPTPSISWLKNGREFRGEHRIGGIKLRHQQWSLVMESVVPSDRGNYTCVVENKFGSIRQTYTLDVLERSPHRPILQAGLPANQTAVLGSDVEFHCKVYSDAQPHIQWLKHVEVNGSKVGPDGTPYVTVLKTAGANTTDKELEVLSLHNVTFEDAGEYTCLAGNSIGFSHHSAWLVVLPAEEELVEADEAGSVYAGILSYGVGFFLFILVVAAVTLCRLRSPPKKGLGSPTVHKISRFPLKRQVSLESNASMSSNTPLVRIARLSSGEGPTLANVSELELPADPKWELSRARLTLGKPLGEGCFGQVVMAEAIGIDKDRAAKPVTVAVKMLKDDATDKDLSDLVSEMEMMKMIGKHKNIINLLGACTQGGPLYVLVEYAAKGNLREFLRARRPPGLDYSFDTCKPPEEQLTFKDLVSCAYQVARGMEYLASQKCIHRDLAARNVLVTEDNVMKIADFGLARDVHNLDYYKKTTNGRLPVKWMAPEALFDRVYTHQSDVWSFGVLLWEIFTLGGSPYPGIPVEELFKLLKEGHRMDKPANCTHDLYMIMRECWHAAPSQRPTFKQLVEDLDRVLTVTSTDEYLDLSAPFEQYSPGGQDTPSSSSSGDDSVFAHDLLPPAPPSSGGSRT

Row | pIC50 | SMILES
1 | > 10.00 | NC(=O)c1c(-c2c(Cl)cccc2Cl)nc2c3cc(-c4cnn(CCO)c4)cnc3ccn12 [Example 1, 2-(2,6-Dichlorophenyl)-9-(1-(2-hydroxyethyl)-1H-pyrazol-4-yl)imidazo[2,1-f][1,6]naphthyridine-3-carboxamide]
2 | > 10.00 | CC(C)(O)Cn1cc(-c2cnc3ccn4c(C(N)=O)c(-c5c(Cl)cccc5Cl)nc4c3c2)cn1 [Example 2, 2-(2,6-Dichlorophenyl)-9-(1-(2-hydroxy-2-methylpropyl)-1H-pyrazol-4-yl)imidazo[2,1-f][1,6]naphthyridine-3-carboxamide]
3 | 9.00 to 10.00 | CC(C)(C(N)=O)n1cc(-c2cnc3ccn4c(C(N)=O)c(-c5c(Cl)cccc5Cl)nc4c3c2)cn1 [Example 3, 9-(1-(1-Amino-2-methyl-1-oxopropan-2-yl)-1H-pyrazol-4-yl)-2-(2,6-dichlorophenyl)imidazo[2,1-f][1,6]naphthyridine-3-carboxamide]
4 | > 10.00 | NC(=O)c1c(-c2c(Cl)cccc2Cl)nc2c3cc(-c4ccc(C(=O)N5CCOCC5)cc4)cnc3ccn12 [Example 4, 2-(2,6-Dichlorophenyl)-9-(4-(morpholine-4-carbonyl)phenyl)imidazo[2,1-f][1,6]naphthyridine-3-carboxamide]
5 | > 10.00 | NC(=O)c1c(-c2c(Cl)cccc2Cl)nc2c3cc(-c4cn[nH]c4)cnc3ccn12 [Example 5, 2-(2,6-Dichlorophenyl)-9-(1H-pyrazol-4-yl)imidazo[2,1-f][1,6]naphthyridine-3-carboxamide]
6 | > 10.00 | CC(CC#N)n1cc(-c2cnc3ccn4c(C(N)=O)c(-c5c(Cl)cccc5Cl)nc4c3c2)cn1 (centres unmarked) [Example 6, 9-(1-(1-Cyanopropan-2-yl)-1H-pyrazol-4-yl)-2-(2,6-dichlorophenyl)imidazo[2,1-f][1,6]naphthyridine-3-carboxamide]
7 | 9.00 to 10.00 | CCC(O)Cn1cc(-c2cnc3ccn4c(C(N)=O)c(-c5c(Cl)cccc5Cl)nc4c3c2)cn1 (centres unmarked) [Example 7, 2-(2,6-Dichlorophenyl)-9-(1-(2-hydroxybutyl)-1H-pyrazol-4-yl)imidazo[2,1-f][1,6]naphthyridine-3-carboxamide]
8 | > 10.00 | NC(=O)c1c(-c2c(Cl)cccc2Cl)nc2c3cc(-c4cnn(CC5(F)CCOCC5)c4)cnc3ccn12 [Example 8, 2-(2,6-Dichlorophenyl)-9-(1-((4-fluorotetrahydro-2H-pyran-4-yl)methyl)-1H-pyrazol-4-yl)imidazo[2,1-f][1,6]naphthyridine-3-carboxamide]
9 | > 10.00 | N#Cc1cncc(Cn2cc(-c3cnc4ccn5c(C(N)=O)c(-c6c(Cl)cccc6Cl)nc5c4c3)cn2)c1 [Example 9, 9-(1-((5-Cyanopyridin-3-yl)methyl)-1H-pyrazol-4-yl)-2-(2,6-dichlorophenyl)imidazo[2,1-f][1,6]naphthyridine-3-carboxamide]
10 | > 10.00 | N#Cc1cc(Cn2cc(-c3cnc4ccn5c(C(N)=O)c(-c6c(Cl)cccc6Cl)nc5c4c3)cn2)ccn1 [Example 10, 9-(1-((2-Cyanopyridin-4-yl)methyl)-1H-pyrazol-4-yl)-2-(2,6-dichlorophenyl)imidazo[2,1-f][1,6]naphthyridine-3-carboxamide]
11 | > 10.00 | NC(=O)c1c(-c2c(Cl)cccc2Cl)nc2c3cc(-c4cnn(Cc5ccncn5)c4)cnc3ccn12 [Example 11, 2-(2,6-Dichlorophenyl)-9-(1-(pyrimidin-4-ylmethyl)-1H-pyrazol-4-yl)imidazo[2,1-f][1,6]naphthyridine-3-carboxamide]
12 | 9.00 to 10.00 | CC(c1ccnc(C#N)c1)n1cc(-c2cnc3ccn4c(C(N)=O)c(-c5c(Cl)cccc5Cl)nc4c3c2)cn1 (centres unmarked) [Example 12, 9-(1-(1-(2-Cyanopyridin-4-yl)ethyl)-1H-pyrazol-4-yl)-2-(2,6-dichlorophenyl)imidazo[2,1-f][1,6]naphthyridine-3-carboxamide]
13 | 9.00 to 10.00 | NC(=O)c1c(-c2c(Cl)cccc2Cl)nc2c3cc(-c4ccc(C5CCS(=O)(=O)CC5)cc4)cnc3ccn12 [Example 13, 2-(2,6-Dichlorophenyl)-9-(4-(1,1-dioxidotetrahydro-2H-thiopyran-4-yl)phenyl)imidazo[2,1-f][1,6]naphthyridine-3-carboxamide]
14 | > 10.00 | NC(=O)c1c(-c2c(Cl)cccc2Cl)nc2c3cc(-c4ccc(N5CCS(=O)(=O)CC5)cc4)cnc3ccn12 [Example 14, 2-(2,6-Dichlorophenyl)-9-(4-(1,1-dioxidothiomorpholino)phenyl)imidazo[2,1-f][1,6]naphthyridine-3-carboxamide]
15 | > 10.00 | NC(=O)c1c(-c2c(Cl)cccc2Cl)nc2c3cc(-c4cnn(Cc5ncccn5)c4)cnc3ccn12 [Example 15, 2-(2,6-Dichlorophenyl)-9-(1-(pyrimidin-2-ylmethyl)-1H-pyrazol-4-yl)imidazo[2,1-f][1,6]naphthyridine-3-carboxamide]
16 | > 10.00 | N#Cc1cccc(Cn2cc(-c3cnc4ccn5c(C(N)=O)c(-c6c(Cl)cccc6Cl)nc5c4c3)cn2)n1 [Example 16, 9-(1-((6-Cyanopyridin-2-yl)methyl)-1H-pyrazol-4-yl)-2-(2,6-dichlorophenyl)imidazo[2,1-f][1,6]naphthyridine-3-carboxamide]

Row | pIC50 | SMILES
17 | > 10.00 | CC(=O)N1CCN(c2ccc(-c3cnc4ccn5c(C(N)=O)c(-c6c(Cl)cccc6Cl)nc5c4c3)cc2)CC1 [Example 17, 9-(4-(4-Acetylpiperazin-1-yl)phenyl)-2-(2,6-dichlorophenyl)imidazo[2,1-f][1,6]naphthyridine-3-carboxamide]
18 | > 10.00 | NC(=O)c1c(-c2c(Cl)cccc2Cl)nc2c3cc(-c4ccc(N5CCN(C(=O)CO)CC5)cc4)cnc3ccn12 [Example 18, 2-(2,6-Dichlorophenyl)-9-(4-(4-(2-hydroxyacetyl)piperazin-1-yl)phenyl)imidazo[2,1-f][1,6]naphthyridine-3-carboxamide]
19 | > 10.00 | CC(=O)N1CCN(Cc2ccc(-c3cnc4ccn5c(C(N)=O)c(-c6c(Cl)cccc6Cl)nc5c4c3)cc2)CC1 [Example 19, 9-(4-((4-Acetylpiperazin-1-yl)methyl)phenyl)-2-(2,6-dichlorophenyl)imidazo[2,1-f][1,6]naphthyridine-3-carboxamide]
20 | 9.00 to 10.00 | NC(=O)c1c(-c2c(Cl)cccc2Cl)nc2c3cc(-c4ccc(CN5CCN(C(=O)CO)CC5)cc4)cnc3ccn12 [Example 20, 2-(2,6-Dichlorophenyl)-9-(4-((4-(2-hydroxyacetyl)piperazin-1-yl)methyl)phenyl)imidazo[2,1-f][1,6]naphthyridine-3-carboxamide]
21 | > 10.00 | CN1CCN(c2ccc(-c3cnc4ccn5c(C(N)=O)c(-c6c(Cl)cccc6Cl)nc5c4c3)cc2)CC1 [Example 21, 2-(2,6-Dichlorophenyl)-9-(4-(4-methylpiperazin-1-yl)phenyl)imidazo[2,1-f][1,6]naphthyridine-3-carboxamide]
22 | > 10.00 | NC(=O)c1c(-c2c(Cl)cccc2Cl)nc2c3cc(-c4ccc(C(=O)N5C[C@@H]6C[C@H]5CO6)cc4)cnc3ccn12 [Example 22, 9-(4-((1S,4S)-2-Oxa-5-azabicyclo[2.2.1]heptane-5-carbonyl)phenyl)-2-(2,6-dichlorophenyl)imidazo[2,1-f][1,6]naphthyridine-3-carboxamide]
23 | > 10.00 | N#CCn1cc(-c2cnc3ccn4c(C(N)=O)c(-c5c(Cl)cccc5Cl)nc4c3c2)cn1 [Example 23, 9-(1-(Cyanomethyl)-1H-pyrazol-4-yl)-2-(2,6-dichlorophenyl)imidazo[2,1-f][1,6]naphthyridine-3-carboxamide]
24 | 9.00 to 10.00 | NC(=O)c1c(-c2c(Cl)cccc2Cl)nc2c3cc(-c4cnn(C5CCOCC5)c4)cnc3ccn12 [Example 24, 2-(2,6-Dichlorophenyl)-9-(1-(tetrahydro-2H-pyran-4-yl)-1H-pyrazol-4-yl)imidazo[2,1-f][1,6]naphthyridine-3-carboxamide]
25 | 9.00 to 10.00 | NC(=O)c1c(-c2c(Cl)cccc2Cl)nc2c3cc(-c4cnn(Cc5ccccc5)c4)cnc3ccn12 [Example 25, 9-(1-Benzyl-1H-pyrazol-4-yl)-2-(2,6-dichlorophenyl)imidazo[2,1-f][1,6]naphthyridine-3-carboxamide]
26 | > 10.00 | CS(=O)(=O)CCn1cc(-c2cnc3ccn4c(C(N)=O)c(-c5c(Cl)cccc5Cl)nc4c3c2)cn1 [Example 26, 2-(2,6-Dichlorophenyl)-9-(1-(2-(methylsulfonyl)ethyl)-1H-pyrazol-4-yl)imidazo[2,1-f][1,6]naphthyridine-3-carboxamide]
27 | > 10.00 | CC(C#N)n1cc(-c2cnc3ccn4c(C(N)=O)c(-c5c(Cl)cccc5Cl)nc4c3c2)cn1 (centres unmarked) [Example 27, 9-(1-(1-Cyanoethyl)-1H-pyrazol-4-yl)-2-(2,6-dichlorophenyl)imidazo[2,1-f][1,6]naphthyridine-3-carboxamide]
28 | > 10.00 | NC(=O)c1c(-c2c(Cl)cccc2Cl)nc2c3cc(-c4cnn(CC(F)F)c4)cnc3ccn12 [Example 28, 2-(2,6-Dichlorophenyl)-9-(1-(2,2-difluoroethyl)-1H-pyrazol-4-yl)imidazo[2,1-f][1,6]naphthyridine-3-carboxamide]
29 | > 10.00 | CN1CCC(n2cc(-c3cnc4ccn5c(C(N)=O)c(-c6c(Cl)cccc6Cl)nc5c4c3)cn2)CC1 [Example 29, 2-(2,6-Dichlorophenyl)-9-(1-(1-methylpiperidin-4-yl)-1H-pyrazol-4-yl)imidazo[2,1-f][1,6]naphthyridine-3-carboxamide]
30 | > 10.00 | CC(C)(CO)n1cc(-c2cnc3ccn4c(C(N)=O)c(-c5c(Cl)cccc5Cl)nc4c3c2)cn1 [Example 30, 2-(2,6-Dichlorophenyl)-9-(1-(1-hydroxy-2-methylpropan-2-yl)-1H-pyrazol-4-yl)imidazo[2,1-f][1,6]naphthyridine-3-carboxamide]
31 | > 10.00 | CC(C)(C#N)n1cc(-c2cnc3ccn4c(C(N)=O)c(-c5c(Cl)cccc5Cl)nc4c3c2)cn1 [Example 31, 9-(1-(2-Cyanopropan-2-yl)-1H-pyrazol-4-yl)-2-(2,6-dichlorophenyl)imidazo[2,1-f][1,6]naphthyridine-3-carboxamide]
32 | > 10.00 | NC(=O)c1c(-c2c(Cl)cccc2Cl)nc2c3cc(-c4cnn(C5CC5)c4)cnc3ccn12 [Example 32, 9-(1-Cyclopropyl-1H-pyrazol-4-yl)-2-(2,6-dichlorophenyl)imidazo[2,1-f][1,6]naphthyridine-3-carboxamide]
